{"source": "patent US8273404B2", "about": "“Extraction of solvents from drug containing polymer reservoirs” (Cordis Corporation, priority 2008, dated 2012)", "key": {"[1]": {"experiment": "Liquid formulations of sirolimus and CCI-779: concentration by liquid chromatography/HPLC, visual observation", "type": "physicochemical"}, "[2]": {"system": "human coronary artery smooth muscle cells", "experiment": "Anti-proliferative activity in cultured human coronary artery smooth muscle cells stimulated with two percent fetal bovine serum", "type": "cell-based", "conditions": "for effect of the added agent on the anti-proliferative activity of rapamycin: agent added to rapamycin treated human coronary artery smooth muscle cells; for effect of the added agent on the anti-proliferative activity of rapamycin / inhibition of human coronary artery smooth muscle cell proliferation (in words): two percent fetal bovine serum; for inhibition of human coronary artery smooth muscle cell proliferation (in words): agent alone", "from_the_text": "The multiple curves represent various concentrations of mycophenolic acid ranging from zero to one thousand nanomolar concentrations.\nFIG. 58 illustrates, in graphical format, the anti-proliferative activity of cladribine in non-synchronized cultured human coronary artery smooth muscle cells stimulated with two percent fetal bovine serum.\nThe multiple curves represent various concentrations of cladribine ranging from zero to nine hundred nanomolar concentrations.\n(§1) The multiple curves represent various concentrations of topotecan ranging from zero to three hundred nanomolar concentrations.\n(§2) The multiple curves represent various concentrations of etoposide ranging from zero to eight hundred nanomolar concentrations.\nThe multiple curves represent various concentrations of Panzem® ranging from zero to 100 micromolar concentrations.\nCurve 8702 illustrates the percent inhibition for various concentrations. In FIG. 88, the six curves 8802, 8804, 8806, 8808, 8810 and 8812 represent various concentrations of PX867 with various concentrations of sirolimus. […] More specifically, curve 8812 illustrates the percent inhibition for a 240 nM PX-867 concentration. […] This may be compared to curve 8804 which represents a 15 nM PX-867 concentration."}, "[3]": {"system": "human coronary artery smooth muscle cell", "experiment": "MTS cytotoxicity assay of Panzem", "type": "cell-based", "conditions": "concentrations up to 30,000.00 nanomolar", "from_the_text": "Typically, a control is utilized to determine baseline toxicity."}, "[4]": {"experiment": "In vitro release kinetics from coated stents", "type": "physicochemical", "conditions": "single-layer sirolimus/cilostazol coating of FIG. 83"}, "[5]": {"experiment": "In vivo release kinetics from coated stents, porcine pharmacokinetics studies", "conditions": "combination coatings with rapamycin", "from_the_text": "The topcoat is two hundred micro grams.\nFIG. 61 is a graphical representation of the in vivo release kinetics of cladribine from a polymeric coating on Bx Velocity® stents, available from Cordis Corporation, implanted in a Yorkshire pig. The basecoat comprises an 85/15 ratio of PVDF and HFP and cladribine for a total combined weight of one thousand eight hundred micrograms (cladribine comprising thirty percent of the total weight). The topcoat comprises an 85/15 ratio of PVDF/HFP and no cladribine. The total weight of the topcoat is three hundred micrograms.\n(§3) The basecoat is applied to Bx Velocity® stents and implanted into Yorkshire pigs.\nas §3\nAnother critical parameter for the performance of the thrombus resistance of a device coated with cilostazol is the duration of the drug release from the coating. This is of particular significance in the two weeks after device implantation. […] The purpose of the porcine PK study is to assess the local pharmacokinetics of a drug eluting stent at a given implantation time. Normally three stents are implanted in three different coronary arteries in a pig for a given time point and then retrieved for total drug recovery analysis. The stents are retrieved at predetermined time points; namely, 1, 3 and 8 days. The stents are extracted and the total amount of drug remaining on the stents is determined by analysis utilizing HPLC (high performance liquid chromatography) for total drug amount. The difference between the original amount of drug on the stent and the amount of drug retrieved at a given time represents the amount of drug released in that period. The continuous release of drug into surrounding arterial tissue is what prevents the neointimal growth and restenosis in the coronary artery. A normal plot represents the percentage of total drug released (%, y-axis) vs. time of implantation (day, x-axis). […] Curve 8102 represents cilostazol and curve 8104 represents sirolimus. […] In this exemplary configuration, the stent 8300 is coated with two layers. […]"}, "[6]": {"experiment": "Cell viability assay (cytotoxicity of topotecan, etoposide)", "type": "cell-based", "from_the_text": "as §1, §2"}, "[7]": {"experiment": "Injectable liquid formulations of paclitaxel: composition and observation", "type": "physicochemical", "from_the_text": "This solution remained clear."}, "[8]": {"system": "human coronary artery smooth muscle cell", "experiment": "Inhibition of coronary artery smooth muscle cell proliferation by trichostatin A, in vitro cell culture study", "type": "cell-based", "conditions": "read-out: anti-proliferative IC50", "from_the_text": "FIG. 51 is a graph of the inhibition of coronary artery smooth muscle cells by trichostatin A in a cell culture study."}, "tumor cell lines": {"system": "tumor cell lines", "conditions": "tumor cell lines (Woo et al.); cited from earlier work"}}, "data": [{"smiles": "CO[C@H]1C[C@@H]2CC[C@@H](C)[C@@](O)(O2)C(=O)C(=O)N2CCCC[C@H]2C(=O)O[C@H]([C@H](C)C[C@@H]2CC[C@@H](OC(=O)C(C)(CO)CO)[C@H](OC)C2)CC(=O)[C@H](C)/C=C(\\C)[C@@H](O)[C@@H](OC)C(=O)[C@H](C)C[C@H](C)/C=C/C=C/C=C/1C", "note": "[CCI-779]", "values": [{"measurement": "concentration of CCI-779 in the final solution (HPLC)", "setting": "[1]; ethanol, Vitamin E TPGS, water", "value": 15000, "unit": "µg/mL"}]}, {"smiles": "COC[C@H]1OC(=O)/C(=C\\N2CCCC2)C2=C(O)C(=O)C3=C([C@H](OC(C)=O)C[C@]4(C)C(=O)CC[C@@H]34)[C@]21C", "note": "[PX-867]", "values": [{"measurement": "percent inhibition of coronary artery smooth muscle cell proliferation", "setting": "[2]; PX867 alone at a concentration of about 10^−6", "value": "close to one hundred percent inhibition"}, {"measurement": "effect of the added agent on the anti-proliferative activity of rapamycin", "setting": "[2]", "value": "strong synergistic effect"}]}, {"smiles": "COc1cc2c(cc1O)CC[C@@H]1[C@@H]2CC[C@]2(C)[C@@H](O)CC[C@@H]12", "note": "[Panzem®, 2-methoxyestradiol]", "values": [{"measurement": "effect of the added agent on the anti-proliferative activity of rapamycin", "setting": "[2]", "value": "increases the percent of inhibition of rapamycin alone"}, {"measurement": "inhibition of human coronary artery smooth muscle cell proliferation (in words)", "setting": "[2]", "value": "extremely effective inhibitor"}, {"measurement": "cell survival in MTS assay", "setting": "[3]", "value": "do not reduce human coronary artery smooth muscle cell survival"}]}, {"smiles": "O=C1CCc2cc(OCCCCc3nnnn3C3CCCCC3)ccc2N1", "note": "[cilostazol, 6[4-(1-cyclohexyl-1H-tetrazol-5-yl)-butoxy]-3,4-dihydro-2-(1H)-quinolinone]", "values": [{"measurement": "release in vitro", "setting": "[4]", "value": "~35", "unit": "%"}]}, {"smiles": "Nc1nc(Cl)nc2c1ncn2[C@H]1C[C@H](O)[C@@H](CO)O1", "note": "[cladribine, 2-chlorodeoxyadenosine]", "values": [{"measurement": "effect of the added agent on the anti-proliferative activity of rapamycin", "setting": "[2]", "value": "potentiate the anti-proliferative activity of rapamycin"}, {"measurement": "inhibition of human coronary artery smooth muscle cell proliferation (in words)", "setting": "[2]", "value": "completely inhibits human coronary artery smooth muscle cell proliferation"}, {"measurement": "relative elution from polymeric stent coating in vivo (in words)", "setting": "[5]", "value": "elutes more rapidly than rapamycin"}]}, {"smiles": "COc1cc([C@@H]2c3cc4c(cc3[C@@H](O[C@@H]3O[C@@H]5CO[C@@H](C)O[C@H]5[C@H](O)[C@H]3O)[C@H]3COC(=O)[C@H]23)OCO4)cc(OC)c1O", "note": "[etoposide]", "values": [{"measurement": "effect of the added agent on the anti-proliferative activity of rapamycin", "setting": "[2]", "value": "potentiate the anti-proliferative activity of rapamycin"}, {"measurement": "cytotoxicity in cell viability assay", "setting": "[6]; concentrations up to ten micromolar", "value": "non-cytotoxic"}]}, {"smiles": "COc1c(C)c2c(c(O)c1C/C=C(\\C)CCC(=O)O)C(=O)OC2", "note": "[mycophenolic acid]", "values": [{"measurement": "effect of the added agent on the anti-proliferative activity of rapamycin", "setting": "[2]", "value": "potentiates the anti-proliferative activity of rapamycin"}, {"measurement": "relative elution from polymeric stent coating in vivo (in words)", "setting": "[5]", "value": "elutes more completely over a shorter duration than the rapamycin"}]}, {"smiles": "CC(=O)O[C@H]1C(=O)[C@@]2(C)[C@H]([C@H](OC(=O)c3ccccc3)[C@]3(O)C[C@H](OC(=O)[C@H](O)[C@@H](NC(=O)c4ccccc4)c4ccccc4)C(C)=C1C3(C)C)[C@]1(OC(C)=O)CO[C@@H]1C[C@@H]2O", "note": "[paclitaxel]", "values": [{"measurement": "paclitaxel concentration as true liquid formulation", "setting": "[7]", "value": "up to 2.5 mg/ml"}, {"measurement": "fold higher than the solubility of paclitaxel in water", "setting": "[7]; 2.5 mg/ml formulation", "value": "about 1000 fold"}]}, {"smiles": "CO[C@H]1C[C@@H]2CC[C@@H](C)[C@@](O)(O2)C(=O)C(=O)N2CCCC[C@H]2C(=O)O[C@H]([C@H](C)C[C@@H]2CC[C@@H](O)[C@H](OC)C2)CC(=O)[C@H](C)/C=C(\\C)[C@@H](O)[C@@H](OC)C(=O)[C@H](C)C[C@H](C)/C=C/C=C/C=C/1C", "note": "[rapamycin]", "values": [{"measurement": "relative elution from polymeric stent coating in vivo (in words)", "setting": "[5]", "value": "slower release rate than that of mycophenolic acid"}, {"measurement": "sirolimus concentration relative to the solubility of sirolimus in water", "setting": "[1]; 4 mg/ml PEG 200 formulation", "value": "about four hundred to about one thousand times higher"}]}, {"smiles": "CC[C@@]1(O)C(=O)OCc2c1cc1n(c2=O)Cc2cc3c(CN(C)C)c(O)ccc3nc2-1", "note": "[topotecan]", "values": [{"measurement": "effect of the added agent on the anti-proliferative activity of rapamycin", "setting": "[2]", "value": "potentiate the anti-proliferative activity of rapamycin"}, {"measurement": "cytotoxicity in cell viability assay", "setting": "[6]; concentrations up to one micromolar", "value": "non-cytotoxic"}]}, {"smiles": "CC(/C=C/C(=O)NO)=C\\[C@@H](C)C(=O)c1ccc(N(C)C)cc1", "note": "[trichostatin A]", "values": [{"measurement": "IC50", "setting": "[8]", "value": "~6", "unit": "nM"}, {"measurement": "anti-proliferative IC50's", "setting": "tumor cell lines", "value": "low nM range"}]}]}
